Laboratory results as given in publication PMC9873282, “Design, synthesis and evaluation of quinoline-O-carbamate derivatives as multifunctional agents for the treatment of Alzheimer’s disease” (Journal of Enzyme Inhibition and Medicinal Chemistry, 2023).
Where “and” joins values, the source holds several entries; their conditions need not be identical. Equal entries are not always repeated. Where two headings read alike, the source gives them in different places.

Key:
hAChE = target: T1, hAChE (Homo sapiens, UniProt P22303); experiment: biochemical; settings: from human erythrocytes; read-out: IC50 ± SD hAChE
T1 construct: hAChE, from human erythrocytes AChE; purchased Sigma Aldrich; host or cells: human erythrocytes (natural source)
T1 sequence (P22303 32-617 isoform P22303-2 limits assumed): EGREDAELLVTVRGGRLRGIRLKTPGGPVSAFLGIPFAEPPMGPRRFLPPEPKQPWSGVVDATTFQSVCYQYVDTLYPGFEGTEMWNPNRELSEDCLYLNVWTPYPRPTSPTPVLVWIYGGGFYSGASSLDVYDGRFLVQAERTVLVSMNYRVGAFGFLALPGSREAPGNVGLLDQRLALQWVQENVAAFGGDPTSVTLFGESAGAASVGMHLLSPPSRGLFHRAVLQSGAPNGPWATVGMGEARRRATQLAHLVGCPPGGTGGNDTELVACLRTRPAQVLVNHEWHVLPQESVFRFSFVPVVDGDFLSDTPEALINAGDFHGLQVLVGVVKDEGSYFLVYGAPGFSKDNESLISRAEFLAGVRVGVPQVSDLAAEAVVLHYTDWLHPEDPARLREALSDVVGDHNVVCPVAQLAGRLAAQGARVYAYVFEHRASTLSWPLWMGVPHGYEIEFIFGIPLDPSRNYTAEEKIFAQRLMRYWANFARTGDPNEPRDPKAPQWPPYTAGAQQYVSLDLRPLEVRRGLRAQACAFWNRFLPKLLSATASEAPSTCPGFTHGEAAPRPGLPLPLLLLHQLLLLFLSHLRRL
Experimental: (§1) Acetylcholinesterase (eeAChE, from the electric eel; hAChE, from human erythrocytes AChE), butyrylcholinesterase (eqBuChE, from equine serum; hBuChE, human serum BuChE), 5,5′-dithiobis-2-nitrobenzoic acid (Ellman’s reagent, DTNB), acetylthiocholine chloride (ATC), and butyrylthiocholine chloride (BTC) were purchased form Sigma Aldrich. The determination of AChE and BuChE inhibitory potency of the synthesised compounds were evaluated by Ellman assay, the detailed procedure referred to our previous work[26]^,[27].

hBuChE = target: T2, hBuChE (Homo sapiens, UniProt P06276); experiment: biochemical
T2 construct: hBuChE, human serum BuChE; purchased Sigma Aldrich; host or cells: human serum (natural source)
T2 sequence (P06276 29-602): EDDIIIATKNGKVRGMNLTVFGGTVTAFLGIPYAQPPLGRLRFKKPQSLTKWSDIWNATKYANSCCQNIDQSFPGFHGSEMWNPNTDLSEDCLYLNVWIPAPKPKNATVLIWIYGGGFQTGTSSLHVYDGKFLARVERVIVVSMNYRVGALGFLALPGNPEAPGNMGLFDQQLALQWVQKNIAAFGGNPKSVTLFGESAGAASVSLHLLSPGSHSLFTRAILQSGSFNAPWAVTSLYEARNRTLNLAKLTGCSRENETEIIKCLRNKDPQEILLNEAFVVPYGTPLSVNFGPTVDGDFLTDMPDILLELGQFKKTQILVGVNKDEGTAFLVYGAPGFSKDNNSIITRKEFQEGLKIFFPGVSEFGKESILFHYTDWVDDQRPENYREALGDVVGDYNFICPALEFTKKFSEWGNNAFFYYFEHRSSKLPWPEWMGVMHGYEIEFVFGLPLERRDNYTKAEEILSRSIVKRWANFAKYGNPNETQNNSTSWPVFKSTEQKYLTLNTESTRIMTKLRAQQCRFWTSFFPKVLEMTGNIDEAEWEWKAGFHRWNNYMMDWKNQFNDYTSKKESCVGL
Experimental: as §1

eeAChE = target: T3, eeAChE (Electrophorus electricus, UniProt O42275); experiment: biochemical; parameters: species or system electric eel
T3 construct: eeAChE, from the electric eel; purchased Sigma Aldrich; host or cells: electric eel (natural source)
T3 sequence (O42275 24-633): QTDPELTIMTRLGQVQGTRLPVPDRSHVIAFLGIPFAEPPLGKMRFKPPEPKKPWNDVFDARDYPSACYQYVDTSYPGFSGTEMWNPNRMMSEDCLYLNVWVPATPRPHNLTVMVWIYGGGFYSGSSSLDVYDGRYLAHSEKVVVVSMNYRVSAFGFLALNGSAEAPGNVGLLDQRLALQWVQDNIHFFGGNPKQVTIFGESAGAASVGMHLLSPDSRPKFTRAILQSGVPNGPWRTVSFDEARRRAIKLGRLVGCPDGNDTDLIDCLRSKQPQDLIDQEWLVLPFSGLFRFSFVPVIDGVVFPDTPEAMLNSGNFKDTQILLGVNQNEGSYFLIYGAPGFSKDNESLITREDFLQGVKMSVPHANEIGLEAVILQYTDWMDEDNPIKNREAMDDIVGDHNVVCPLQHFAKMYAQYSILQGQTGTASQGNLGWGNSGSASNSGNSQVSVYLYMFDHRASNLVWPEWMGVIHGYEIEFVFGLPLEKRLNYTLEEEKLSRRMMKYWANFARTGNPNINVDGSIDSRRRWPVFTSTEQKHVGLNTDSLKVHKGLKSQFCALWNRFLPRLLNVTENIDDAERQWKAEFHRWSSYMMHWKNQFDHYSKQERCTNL
Experimental: (§2) The inhibitory activities of the synthesised compounds against eeAChE (from electric eel) and eqBuChE (from equine serum) were tested by the modified Ellman’s method[26]^,[27]. […] The determination of AChE and BuChE inhibitory potency of the synthesised compounds were evaluated by Ellman assay, the detailed procedure referred to our previous work[26]^,[27].

eqBuChE = target: T4, eqBuChE (Equus caballus, UniProt P81908); experiment: biochemical; parameters: species or system equine; settings: for IC50: BuChE from equine serum; for SI = IC50 (AChE)/IC50 (BuChE): eeAChE/eqBuChE; for inhibition at 25 µM: read-out: eqBuChE inhibition rate
T4 construct: eqBuChE, from equine serum; purchased Sigma Aldrich; host or cells: equine serum (natural source)
T4 sequence (P81908 whole entry): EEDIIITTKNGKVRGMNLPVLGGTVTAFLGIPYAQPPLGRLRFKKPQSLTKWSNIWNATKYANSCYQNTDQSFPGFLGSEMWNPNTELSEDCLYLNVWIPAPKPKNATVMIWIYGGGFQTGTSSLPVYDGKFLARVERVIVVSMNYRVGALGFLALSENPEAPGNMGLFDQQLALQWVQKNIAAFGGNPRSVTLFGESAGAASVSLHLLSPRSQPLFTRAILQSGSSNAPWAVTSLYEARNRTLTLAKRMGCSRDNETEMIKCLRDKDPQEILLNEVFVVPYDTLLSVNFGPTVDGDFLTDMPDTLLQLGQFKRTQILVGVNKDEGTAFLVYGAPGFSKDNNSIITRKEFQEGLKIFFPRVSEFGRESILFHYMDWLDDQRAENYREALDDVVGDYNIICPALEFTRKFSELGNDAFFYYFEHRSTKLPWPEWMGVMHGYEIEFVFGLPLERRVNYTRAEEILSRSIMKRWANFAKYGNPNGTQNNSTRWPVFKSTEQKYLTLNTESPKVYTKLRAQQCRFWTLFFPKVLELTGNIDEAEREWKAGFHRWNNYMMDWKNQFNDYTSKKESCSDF
Experimental: as §2

[1] = test system: Aβ25-35-induced PC12 cells injury; experiment: Neuroprotective effect on Aβ25-35-induced PC12 cells injury (CCK-8); type: cell-based; settings: 25 µM Aβ25-35; model cell viability 57.3%
Experimental: (§3) The neuroprotective effect of compounds 3a, 3c, 3e, 3f, 3k, 3m, and 3n on Aβ25–35-induced PC12 cells injury were evaluated using CCK-8 assay. […] Furthermore, as shown in Figure 12(B), when PC12 cells were exposed to 25 µM Aβ25-35, the cell viability sharply declined to 57.3% (p < 0.01) compared with untreated group.
• Preparation of Aβ25-35 aggregation. Aβ25-35 was purchased from sigma. 1 mg Aβ25-35 was dissolved in 943 µL of sterilised deionised water to obtain 1 mM stock solution, aliquoted, –20 °C preservation. Removing the appropriate volume in a 48-well plate and incubated in a 37 °C incubator for two days to allow its ageing to accumulate and produce neurotoxicity. After aggregation was completed, the solution was diluted with PBS to get 25 µM solution of Aβ25-35 aggregation. • Neuroprotective effects of compounds on Aβ25-35-induced PC12 cells injury
(§4) The PC12 cells during the logarithmic growth phase were digested and centrifuged with pancreatic enzyme solution, the cells were resuspended by adding the prepared media solution, and piped evenly with a pipette to seed in a 96-well cell culture plate (cell concentration adjusted to 2.0 × 10^4 cell·mL^−1). Each well was added 100 µL complete medium was added to each well and incubated at 37 °C and 5% CO2 for 24 h.
After incubation for 24 h, PC12 cells were divided into blank group, control group, Aβ25-35 model group and tested compounds group (5, 10, 20 µM). Then the original medium was discarded, and 100 µL new complete medium were added to PC12 cells, and the tested compounds group was added to 100 µL complete medium containing different concentrations (5, 10, and 20 µM) of tested compounds, incubated for 2 h at 37 °C, 5% CO2 conditions. After incubation for 2 h, 10 µL Aβ25-35 solution was added to the tested compounds groups and model group (the final concentration of Aβ25-35 was 25 µM), and incubated for 24 h at 37 °C, 5% CO2 conditions, 10 µL CCK-8 was added to each well and further incubated for 1 h at 37 °C and 5% CO2. Finally, the OD value was measured at 450 nm using a microplate reader, and each concentration set three wells. The cell survival rate (%) was determined according to the following formula: cell viability (%) = {(ODdrug−ODblank)}/{(ODcontrol−ODblank)}.

IL-1β = IL-1β production in LPS-stimulated BV-2 cells (ELISA); type: cell-based; settings: 1 µg/mL LPS 24 h
Experimental: (§5) Firstly, the cytotoxicity of compounds 3a, 3c, 3e, 3f, 3k, 3m and 3n were tested using CCK8 assay.
(§6) BV-2 cells (2 × 10^5 cells/well) were seeded in a 24-well cell culture plates. The cells were divided into blank control group, model group (1 µg/mL LPS), LPS + 2 µM compound group, LPS + 1 µM compound group. Each drug group was pre-treated with corresponding concentration of drug solution for 8 h. After 8 h, the culture medium was aspirated out. Except for the blank control group, which was added with DMEM medium, the other groups were stimulated with 1 µg/mL LPS for 24 h. Then cell supernatant was aspirated and centrifuged at 3000 rpm for 3 min. The content of NO in cell culture supernatant was determined by Griess method, and the levels of cytokines IL-6 and IL-1β in cell culture supernatant were determined by IL-6 ELISA kit and IL-1β ELISA kit, respectively.

BV-2 cells = experiment: Cytotoxicity on BV-2 cells (CCK8 assay); type: cell-based; settings: compounds at 2 µM
Experimental: as §5
BV-2 cells were cultured in DMEM containing 10% foetal bovine serum, 100 U/mL penicillin, 100 U/mL streptomycin, and 1% nonessential amino acid at 37 °C with 5% CO2.
BV-2 cells in logarithmic growth stage were digested and centrifuged, and then resuspended in DMEM medium containing 1% penicillin-streptomycin and 10% foetal bovine serum. The cells was adjusted to 1.2 × 10^4 cells/well, and then seeded evenly in 96-well cell culture plates. The cells were incubated for 36 h at 37 °C with 5% CO2. After incubation, the cells were added to different concentrations (10 and 2 µM) of tested compounds, and incubated for 24 h at 37 °C with 5% CO2. Then, 10 µL CCK-8 solution was added to each well, and incubated for another 1 h at 37 °C with 5% CO2. The OD values were tested at […]. The cell viability (%) = {(ODdrug−ODblank)}/{(ODcontrol−ODblank)} × 100%.

PC12 cells = experiment: Cytotoxicity on PC12 cells; type: cell-based; settings: at concentration below 40 µM
Experimental: as §3, §4

IL-6 = IL-6 production in LPS-stimulated BV-2 cells (ELISA); type: cell-based; settings: 1 µM and 2 µM; 1 µg/mL LPS 24 h
Experimental: as §5, §6

NO = NO release in LPS-stimulated BV-2 cells (Griess method); type: cell-based; settings: 1 µg/mL LPS 24 h
Experimental: as §5, §6

[2] = AChE from electric eel, read-out: IC50 ± SD eeAChE

Row | Compound | IC50 (eeAChE; [2]) | SI = IC50 (AChE)/IC50 (BuChE) (eqBuChE) | IC50 (eeAChE) | neuroprotective effect on Aβ25-35-induced PC12 cells injury [1] | levels of IL-1β compared with model group (IL-1β) | cell viability of BV-2 cells (BV-2 cells) | cytotoxicity on PC12 cells (PC12 cells) | levels of IL-6 compared with model group (IL-6) | release volume of NO (NO) | inhibition at 25 µM (eqBuChE; at 25 μM of compounds) | also measured
1 | CCN(CC)C(=O)Oc1ccnc2ccccc12 [Compound 3b, Quinolin-4-yl diethylcarbamate] | 12.7 ± 0.13 µM | 11.5 |  |  |  |  |  |  |  |  | IC50 (hAChE): 30.2 ± 0.61 µM; IC50 (hBuChE; from human serum, read-out: IC50 ± SD hBuChE): 5.39 µM and 5.4 µM; SI = IC50 (AChE)/IC50 (BuChE) (hBuChE; hAChE/hBuChE): 5.6; IC50 (eqBuChE; read-out: IC50 ± SD eqBuChE): 1.06 µM and 1.1 µM
2 | CCN(C)C(=O)Oc1ccc2ncccc2c1 [Compound 3k, Quinolin-6-yl ethyl(methyl)carbamate] |  |  | 10.3 ± 0.58 µM | significant neuroprotective effects at 10 µM | significantly decreased | did not show obvious change | did not show any cytotoxicity | significantly decreased | significantly decreased |  | inhibition at 25 µM (eqBuChE): 5.8 ± 0.03%
3 | CCN(CC)C(=O)Oc1ccc2ncccc2c1 [Compound 3j, Quinolin-6-yl diethylcarbamate] | 12.2 ± 0.19 µM |  |  |  |  |  |  |  |  | 30.7 ± 1.26% | 
4 | CN(C)C(=O)Oc1ccnc2ccccc12 [Compound 3a, Quinolin-4-yl dimethylcarbamate] |  | 3.8 | 10.8 ± 0.33 µM | did not show significant neuroprotective effects | did not obviously decrease | did not show obvious change | did not show any cytotoxicity | significantly decreased | significantly decreased |  | IC50 (eqBuChE; IC50 ± SD eqBuChE): 2.83 µM and 2.8 µM
5 | O=C(Oc1cccc2cccnc12)N1CCOCC1 [Compound 3p, Quinolin-8-yl morpholine-4-carboxylate] | 12.6 ± 0.76 µM |  |  |  |  |  |  |  |  | 10.8 ± 0.07% | 
6 | CCN(CC)C(=O)Oc1cccc2cccnc12 [Compound 3n, Quinolin-8-yl diethylcarbamate] | 9.7 ± 0.07 µM |  |  | significant neuroprotective effects at 5 and 10 µM | did not obviously decrease | did not show obvious change | did not show any cytotoxicity | significantly decreased | significantly decreased | 2.4 ± 0.01% | 
7 | CN(C)C(=O)Oc1ccc2ncccc2c1 [Compound 3i, Quinolin-6-yl dimethylcarbamate] |  |  | 14.1 ± 0.43 µM |  |  |  |  |  |  |  | inhibition at 25 µM (eqBuChE): 13.8 ± 0.61%
8 | CCN(C)C(=O)Oc1ccnc2ccccc12 [Compound 3c, Quinolin-4-yl ethyl(methyl)carbamate] |  | 6.9 | 13.2 ± 0.51 µM | did not show significant neuroprotective effects | did not obviously decrease | did not show obvious change | did not show any cytotoxicity | significantly decreased | significantly decreased |  | IC50 (eqBuChE; IC50 ± SD eqBuChE): 1.92 µM and 1.9 µM
9 | CC(C)N(C(=O)Oc1cccc2cccnc12)C(C)C [Compound 3q, Quinolin-8-yl diisopropylcarbamate] | 14.8 ± 0.68 µM |  |  |  |  |  |  |  |  | 1.7 ± 0.01% | 
